Eight compounds from ChEMBL document CHEMBL1201862, “PubChem BioAssay data set” (2004) can be followed below.

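Five compound concentrations were applied to cells in 96-well plates for 48 hours; endpoints were derived by simple linear interpolation of the resulting dose-response curve. GI50 = concentration required for 50% inhibition of growth.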 The source made the active and inactive calls. No stated cut-off is given here; in the data, active = GI50 up to about 1.1 µM and inactive = higher.

Some test systems named below: ACHN; CCRF-CEM; COLO 205; HCT-116; HOP-92; KM12; MDA-MB-231; MDA-MB-435; MDA-N; MOLT-4; OVCAR-3; OVCAR-8; RPMI-8226; SF-539; SK-MEL-28; SN12C; SNB-19; SW-620; TK-10; A498.
Experiment in all cases: NCI-60 cell line screen, 48 h

Regarding `O=C1NCCCc2nonc21`, the GI50 in the test with ACHN, in the test on CCRF-CEM, with COLO 205, in the test on HCT-116, with HOP-92 and in the test on KM12 was > 100 µM (inactive) each time. Moreover, the GI50 in the test with MDA-MB-231, in the test with MDA-MB-435, in the test on MDA-N, with MOLT-4, in the test with OVCAR-3 and with OVCAR-8 was > 100 µM (inactive) each time. Besides, the GI50 in the test with RPMI-8226, in the test on SF-539, in the test on SK-MEL-28, with SN12C, in the test with SNB-19 and in the test on SW-620 was > 100 µM (inactive) in each case. For the same compound, the GI50 in the test on TK-10 is > 100 µM (inactive).

For the compound `CC(=O)OCC(OC(C)=O)C(OC(C)=O)C(OC(C)=O)C(C=NN(C(C)=O)S(=O)(=O)c1ccc(/C=C2\NC(=O)NC2=O)cc1)OC(C)=O` (configuration not stated), the GI50 in the test with A498 is > 100 µM (inactive); in the test with ACHN, > 100 µM (inactive); in the test with CCRF-CEM, 84.3 µM (inactive); in the test on COLO 205, > 100 µM (inactive); in the test with HCT-116 it was > 100 µM (inactive); with KM12, > 100 µM (inactive). The GI50 with MDA-MB-231, in the test with MDA-MB-435, with MDA-N, in the test with MOLT-4, in the test with OVCAR-3 and with OVCAR-8 was > 100 µM (inactive) throughout. Moreover, the GI50 in the test on RPMI-8226, in the test on SN12C, with SNB-19, in the test on SW-620 and in the test with TK-10 was > 100 µM (inactive) each time.

For `[N-]=[N+]=Nc1cc(=O)[nH]c2ccccc12`, the GI50 in the test on ACHN was > 100 µM (inactive); with CCRF-CEM it was > 100 µM (inactive); in the test with COLO 205 it was > 100 µM (inactive); in the test on HCT-116 it was > 100 µM (inactive); in the test on HOP-92, 85.3 µM (inactive); in the test with KM12, > 100 µM (inactive). In addition, the GI50 in the test with MDA-MB-231 is > 100 µM (inactive); in the test with MDA-MB-435, > 100 µM (inactive); in the test with MDA-N, > 100 µM (inactive); in the test on MOLT-4, 92.5 µM (inactive); with OVCAR-3 it was 65.2 µM (inactive); with OVCAR-8 it was > 100 µM (inactive). Also, the GI50 in the test with RPMI-8226 is 81.8 µM (inactive); in the test on SF-539 it was > 100 µM (inactive); in the test on SK-MEL-28, > 100 µM (inactive); with SN12C, > 100 µM (inactive); in the test with SNB-19 it was > 100 µM (inactive); with SW-620, > 100 µM (inactive). Moreover, the GI50 in the test with TK-10 was 53 µM (inactive).

Consider `CN(C)C(=O)CO/N=C1/C(=C2/C(=O)Nc3ccccc32)Nc2ccccc21`, for which the GI50 with ACHN is > 100 µM (inactive); with CCRF-CEM it was > 100 µM (inactive); in the test with COLO 205, 31.6 µM (inactive); in the test with HCT-116, 94.8 µM (inactive); with HOP-92, > 100 µM (inactive); in the test on KM12 it was 0.032 µM (active). Also, the GI50 in the test on MDA-MB-231, with MDA-MB-435, in the test with MDA-N, in the test on MOLT-4, with OVCAR-3 and with OVCAR-8 was > 100 µM (inactive) throughout. The GI50 was > 100 µM (inactive) in the test with RPMI-8226; 39.3 µM (inactive) in the test on SF-539; > 100 µM (inactive) in the test with SK-MEL-28; > 100 µM (inactive) with SN12C; > 100 µM (inactive) in the test with SNB-19; > 100 µM (inactive) with SW-620. The GI50 in the test on TK-10 was 40.9 µM (inactive).

With `C=C(C)[C@@H]1CCc2c(c(C)cc(O)c(=O)c2O)C1`, the GI50 in the test on ACHN was 1.18 µM (inactive); in the test on CCRF-CEM it was 0.412 µM (active); in the test on COLO 205, 1.63 µM (inactive); in the test on HCT-116 it was 0.156 µM (active); in the test on HOP-92, 0.573 µM (active); in the test on KM12, 3.03 µM (inactive). In addition, the GI50 in the test with MDA-MB-231 is > 52.1 µM (inactive); with MDA-MB-435 it was 3.13 µM (inactive); with MDA-N it was 3.08 µM (inactive); in the test with MOLT-4, 1.4 µM (inactive); in the test on OVCAR-8, 0.706 µM (active); in the test with RPMI-8226 it was 3.57 µM (inactive). Also, the GI50 with SF-539 was 0.6 µM (active); in the test on SK-MEL-28, 4.63 µM (inactive); with SN12C, 0.363 µM (active); in the test with SNB-19, 1.13 µM (inactive); in the test with SW-620, 0.643 µM (active); in the test on TK-10 it was 13.1 µM (inactive).

Consider `N#Cc1c(N)c2c(c(-c3ccccc3)c1-c1ccccc1)C(=O)N(N)C2=O`, for which the GI50 in the test with ACHN was > 100 µM (inactive); in the test with CCRF-CEM it was 42.7 µM (inactive); with COLO 205 it was > 100 µM (inactive); in the test with HCT-116, > 100 µM (inactive); with HOP-92 it was 26.9 µM (inactive); in the test on KM12, > 100 µM (inactive). Also, the GI50 in the test on MDA-MB-231 is > 100 µM (inactive); in the test with MDA-MB-435 it was > 100 µM (inactive); in the test on MDA-N, > 100 µM (inactive); in the test with MOLT-4, 70.6 µM (inactive); in the test on OVCAR-3 it was > 100 µM (inactive); with OVCAR-8, > 100 µM (inactive). For the same compound, the GI50 in the test on RPMI-8226 is 32.7 µM (inactive); in the test with SF-539, 47.1 µM (inactive); with SK-MEL-28, > 100 µM (inactive); in the test with SN12C, > 100 µM (inactive); in the test with SNB-19, > 100 µM (inactive); in the test with SW-620, > 100 µM (inactive). Further, the GI50 in the test with TK-10 is > 100 µM (inactive).

In the case of `O=C(O)c1cc(-c2ccc3cc(O)c(O)cc3c2)ccc1O`, the GI50 in the test with A498, with ACHN, in the test with CCRF-CEM, in the test on COLO 205, in the test with HCT-116 and with KM12 was > 12.5 µM (inactive) in each case. The GI50 in the test on MDA-MB-231 is > 12.5 µM (inactive); with MDA-MB-435, 5.73 µM (inactive); in the test on MDA-N, 3.88 µM (inactive); in the test on MOLT-4 it was > 12.5 µM (inactive); in the test on OVCAR-3, > 12.5 µM (inactive); with OVCAR-8, > 12.5 µM (inactive). For the same compound, the GI50 in the test on SF-539, in the test on SK-MEL-28, with SN12C, in the test on SNB-19, in the test on SW-620 and in the test on TK-10 was > 12.5 µM (inactive) throughout.

For `CSc1ncnc2c1CCN2`, the GI50 with ACHN is > 10 µM (inactive); in the test on CCRF-CEM, > 10 µM (inactive); in the test with COLO 205 it was 8.85 µM (inactive); in the test on HCT-116, 6.07 µM (inactive); with HOP-92 it was 3.96 µM (inactive); with KM12, 5.35 µM (inactive). The GI50 is > 10 µM (inactive) in the test with MDA-MB-231; 2.21 µM (inactive) with MDA-MB-435; 3.4 µM (inactive) in the test on MDA-N; > 10 µM (inactive) in the test on MOLT-4; 2.87 µM (inactive) in the test on OVCAR-3; > 10 µM (inactive) in the test on OVCAR-8. In addition, the GI50 is > 10 µM (inactive) in the test on RPMI-8226; > 10 µM (inactive) in the test with SK-MEL-28; > 100 µM (inactive) in the test on SN12C; > 10 µM (inactive) with SNB-19; 7.96 µM (inactive) in the test with SW-620; > 10 µM (inactive) with TK-10.
